± gives the uncertainty stated by the source.
Assay: xn = mol fraction of the nth substance listed

Work on `CC#N` + CCCO yielded a viscosity (293.15 K, 101.32 kPa, x1 = 0.0214) of 2.052 ± 0.016 mPa·s, a viscosity (293.15 K, 101.32 kPa, x1 = 0.0926) of 1.636 ± 0.013 mPa·s and a viscosity (293.15 K, 101.32 kPa, x1 = 0.131) of 1.467 ± 0.012 mPa·s. It also gave a viscosity (293.15 K, 101.32 kPa, x1 = 0.2287) of 1.114 ± 0.009 mPa·s, a viscosity (293.15 K, 101.32 kPa, x1 = 0.3661) of 0.8314 ± 0.007 mPa·s and a viscosity (293.15 K, 101.32 kPa, x1 = 0.4647) of 0.6986 ± 0.006 mPa·s. The viscosity (293.15 K, 101.32 kPa, x1 = 0.5532) was 0.5951 ± 0.0053 mPa·s, the viscosity (293.15 K, 101.32 kPa, x1 = 0.6088) was 0.5441 ± 0.0049 mPa·s and the viscosity (293.15 K, 101.32 kPa, x1 = 0.7151) was 0.4665 ± 0.0043 mPa·s. For the same compound, the viscosity (293.15 K, 101.32 kPa, x1 = 0.8071) was 0.4122 ± 0.0039 mPa·s, the viscosity (293.15 K, 101.32 kPa, x1 = 0.8778) was 0.3835 ± 0.0037 mPa·s and the viscosity (298.15 K, 101 kPa, x1 = 0.0674) was 1.557 ± 0.02 mPa·s. The viscosity (298.15 K, 101 kPa, x1 = 0.1534) was 1.243 ± 0.015 mPa·s, the viscosity (298.15 K, 101 kPa, x1 = 0.2933) was 0.903 ± 0.011 mPa·s and the viscosity (298.15 K, 101 kPa, x1 = 0.3889) was 0.738 ± 0.009 mPa·s. The viscosity (298.15 K, 101 kPa, x1 = 0.4881) was 0.622 ± 0.007 mPa·s, the viscosity (298.15 K, 101 kPa, x1 = 0.5995) was 0.519 ± 0.006 mPa·s and the viscosity (298.15 K, 101 kPa, x1 = 0.703) was 0.438 ± 0.005 mPa·s. The viscosity (298.15 K, 101 kPa, x1 = 0.7951) was 0.393 ± 0.005 mPa·s, the viscosity (298.15 K, 101 kPa, x1 = 0.909) was 0.361 ± 0.004 mPa·s and the viscosity (298.15 K, 101.3 kPa, x1 = 0.1388) was 1.295 ± 0.031 mPa·s. The viscosity (298.15 K, 101.3 kPa, x1 = 0.2787) was 0.922 ± 0.023 mPa·s, the viscosity (298.15 K, 101.3 kPa, x1 = 0.3856) was 0.747 ± 0.019 mPa·s and the viscosity (298.15 K, 101.3 kPa, x1 = 0.4939) was 0.615 ± 0.016 mPa·s. For the same compound, the viscosity (298.15 K, 101.3 kPa, x1 = 0.5945) was 0.522 ± 0.014 mPa·s, the viscosity (298.15 K, 101.3 kPa, x1 = 0.6887) was 0.463 ± 0.013 mPa·s and the viscosity (298.15 K, 101.3 kPa, x1 = 0.7735) was 0.421 ± 0.012 mPa·s. It also gave a viscosity (298.15 K, 101.3 kPa, x1 = 0.8539) of 0.391 ± 0.012 mPa·s, a viscosity (298.15 K, 101.3 kPa, x1 = 0.9294) of 0.365 ± 0.011 mPa·s and a viscosity (303.15 K, 101 kPa, x1 = 0.0674) of 1.267 ± 0.016 mPa·s. It also gave a viscosity (303.15 K, 101 kPa, x1 = 0.1534) of 1.027 ± 0.013 mPa·s, a viscosity (303.15 K, 101 kPa, x1 = 0.2933) of 0.761 ± 0.009 mPa·s and a viscosity (303.15 K, 101 kPa, x1 = 0.3889) of 0.631 ± 0.007 mPa·s. For the same compound, the viscosity (303.15 K, 101 kPa, x1 = 0.4881) was 0.539 ± 0.006 mPa·s, the viscosity (303.15 K, 101 kPa, x1 = 0.5995) was 0.459 ± 0.005 mPa·s and the viscosity (303.15 K, 101 kPa, x1 = 0.703) was 0.39 ± 0.005 mPa·s. The viscosity (303.15 K, 101 kPa, x1 = 0.7951) was 0.354 ± 0.004 mPa·s, the viscosity (303.15 K, 101 kPa, x1 = 0.909) was 0.329 ± 0.004 mPa·s and the viscosity (303.15 K, 101.3 kPa, x1 = 0.1388) was 1.166 ± 0.028 mPa·s. It also gave a viscosity (303.15 K, 101.3 kPa, x1 = 0.2787) of 0.842 ± 0.021 mPa·s, a viscosity (303.15 K, 101.3 kPa, x1 = 0.3856) of 0.695 ± 0.018 mPa·s and a viscosity (303.15 K, 101.3 kPa, x1 = 0.4939) of 0.574 ± 0.016 mPa·s. The viscosity (303.15 K, 101.3 kPa, x1 = 0.5945) was 0.498 ± 0.014 mPa·s, the viscosity (303.15 K, 101.3 kPa, x1 = 0.6887) was 0.436 ± 0.013 mPa·s and the viscosity (303.15 K, 101.3 kPa, x1 = 0.7735) was 0.399 ± 0.012 mPa·s. The viscosity (303.15 K, 101.3 kPa, x1 = 0.8539) was 0.374 ± 0.011 mPa·s, the viscosity (303.15 K, 101.3 kPa, x1 = 0.9294) was 0.352 ± 0.011 mPa·s and the viscosity (303.15 K, 101.32 kPa, x1 = 0.0214) was 1.623 ± 0.013 mPa·s. It also gave a viscosity (303.15 K, 101.32 kPa, x1 = 0.0926) of 1.329 ± 0.011 mPa·s, a viscosity (303.15 K, 101.32 kPa, x1 = 0.131) of 1.195 ± 0.01 mPa·s and a viscosity (303.15 K, 101.32 kPa, x1 = 0.2287) of 0.9375 ± 0.0078 mPa·s. For the same compound, the viscosity (303.15 K, 101.32 kPa, x1 = 0.3661) was 0.7 ± 0.0061 mPa·s, the viscosity (303.15 K, 101.32 kPa, x1 = 0.4647) was 0.5975 ± 0.0053 mPa·s and the viscosity (303.15 K, 101.32 kPa, x1 = 0.5532) was 0.5163 ± 0.0047 mPa·s. The viscosity (303.15 K, 101.32 kPa, x1 = 0.6088) was 0.4725 ± 0.0044 mPa·s, the viscosity (303.15 K, 101.32 kPa, x1 = 0.7151) was 0.4106 ± 0.0039 mPa·s and the viscosity (303.15 K, 101.32 kPa, x1 = 0.8071) was 0.3683 ± 0.0036 mPa·s. It also gave a viscosity (303.15 K, 101.32 kPa, x1 = 0.8778) of 0.345 ± 0.0034 mPa·s, a viscosity (308.15 K, 101 kPa, x1 = 0.0674) of 1.035 ± 0.013 mPa·s and a viscosity (308.15 K, 101 kPa, x1 = 0.1534) of 0.845 ± 0.01 mPa·s. The viscosity (308.15 K, 101 kPa, x1 = 0.2933) was 0.645 ± 0.008 mPa·s, the viscosity (308.15 K, 101 kPa, x1 = 0.3889) was 0.54 ± 0.006 mPa·s and the viscosity (308.15 K, 101 kPa, x1 = 0.4881) was 0.469 ± 0.006 mPa·s. The viscosity (308.15 K, 101 kPa, x1 = 0.5995) was 0.407 ± 0.005 mPa·s, the viscosity (308.15 K, 101 kPa, x1 = 0.703) was 0.351 ± 0.004 mPa·s and the viscosity (308.15 K, 101 kPa, x1 = 0.7951) was 0.321 ± 0.004 mPa·s. It also gave a viscosity (308.15 K, 101 kPa, x1 = 0.909) of 0.303 ± 0.004 mPa·s, a viscosity (308.15 K, 101.3 kPa, x1 = 0.1388) of 1.053 ± 0.026 mPa·s and a viscosity (308.15 K, 101.3 kPa, x1 = 0.2787) of 0.769 ± 0.02 mPa·s. It also gave a viscosity (308.15 K, 101.3 kPa, x1 = 0.3856) of 0.634 ± 0.017 mPa·s, a viscosity (308.15 K, 101.3 kPa, x1 = 0.4939) of 0.53 ± 0.015 mPa·s and a viscosity (308.15 K, 101.3 kPa, x1 = 0.5945) of 0.465 ± 0.013 mPa·s. It also gave a viscosity (308.15 K, 101.3 kPa, x1 = 0.6887) of 0.413 ± 0.012 mPa·s, a viscosity (308.15 K, 101.3 kPa, x1 = 0.7735) of 0.38 ± 0.011 mPa·s and a viscosity (308.15 K, 101.3 kPa, x1 = 0.8539) of 0.355 ± 0.011 mPa·s. It also gave a viscosity (308.15 K, 101.3 kPa, x1 = 0.9294) of 0.334 ± 0.01 mPa·s, a viscosity (313.15 K, 101.3 kPa, x1 = 0.1388) of 0.983 ± 0.024 mPa·s and a viscosity (313.15 K, 101.3 kPa, x1 = 0.2787) of 0.706 ± 0.018 mPa·s. For the same compound, the viscosity (313.15 K, 101.32 kPa, x1 = 0.0214) was 1.298 ± 0.011 mPa·s, the viscosity (313.15 K, 101.32 kPa, x1 = 0.0926) was 1.089 ± 0.009 mPa·s and the viscosity (313.15 K, 101.32 kPa, x1 = 0.131) was 0.9876 ± 0.0082 mPa·s. The viscosity (313.15 K, 101.32 kPa, x1 = 0.2287) was 0.7852 ± 0.0067 mPa·s, the viscosity (313.15 K, 101.32 kPa, x1 = 0.3661) was 0.5983 ± 0.0053 mPa·s and the viscosity (313.15 K, 101.32 kPa, x1 = 0.4647) was 0.5164 ± 0.0047 mPa·s. It also gave a viscosity (313.15 K, 101.32 kPa, x1 = 0.5532) of 0.4519 ± 0.0042 mPa·s, a viscosity (313.15 K, 101.32 kPa, x1 = 0.6088) of 0.4163 ± 0.004 mPa·s and a viscosity (313.15 K, 101.32 kPa, x1 = 0.7151) of 0.3663 ± 0.0036 mPa·s. The viscosity (313.15 K, 101.32 kPa, x1 = 0.8071) was 0.3317 ± 0.0033 mPa·s, the viscosity (313.15 K, 101.32 kPa, x1 = 0.8778) was 0.3126 ± 0.0032 mPa·s and the viscosity (323.15 K, 101.32 kPa, x1 = 0.0214) was 1.052 ± 0.009 mPa·s. For the same compound, the viscosity (323.15 K, 101.32 kPa, x1 = 0.0926) was 0.8994 ± 0.0076 mPa·s, the viscosity (323.15 K, 101.32 kPa, x1 = 0.131) was 0.8269 ± 0.0071 mPa·s and the viscosity (323.15 K, 101.32 kPa, x1 = 0.2287) was 0.665 ± 0.0058 mPa·s. The viscosity (323.15 K, 101.32 kPa, x1 = 0.3661) was 0.5179 ± 0.0047 mPa·s, the viscosity (323.15 K, 101.32 kPa, x1 = 0.4647) was 0.451 ± 0.0042 mPa·s and the viscosity (323.15 K, 101.32 kPa, x1 = 0.5532) was 0.3984 ± 0.0038 mPa·s. It also gave a viscosity (323.15 K, 101.32 kPa, x1 = 0.6088) of 0.3701 ± 0.0036 mPa·s, a viscosity (323.15 K, 101.32 kPa, x1 = 0.7151) of 0.3284 ± 0.0033 mPa·s and a viscosity (323.15 K, 101.32 kPa, x1 = 0.8071) of 0.3003 ± 0.0031 mPa·s. For the same compound, the viscosity (323.15 K, 101.32 kPa, x1 = 0.8778) was 0.2849 ± 0.003 mPa·s.
